pIC50: −log10 of the molar value. Where a SMILES comes first, the peptide text is derived from it.
Molecular target: HLA A*3201 (Homo sapiens, UniProt P04439, A270S/D101S/D185E/E176V/E277Q/F133L/G103R/G107R/G231S/H175R/I121M/I218V/I322F/K168Q/L105A/L300P/L318F/M331R/P208A/P217A/Q94H/R106L/R138Q/S129P/T104I/T323A/T345S/V100E/V321M/V358M)
Experiment: biochemical
Format: binding

| SMILES | pIC50 |
| --- | --- |
| CSCC[C@H](NC(=O)[C@H](Cc1ccc(O)cc1)NC(=O)[C@H](Cc1ccccc1)NC(=O)[C@H](CC(C)C)NC(=O)[C@@H](N)CCSC)C(=O)N[C@@H](CC(=O)O)C(=O)N[C@@H](CC(C)C)C(=O)N[C@@H](CO)C(=O)N[C@@H](Cc1ccc(O)cc1)C(=O)O [3102.0347] (H-MLFYMDLSY-OH) | 8.92 |
| CC[C@H](C)[C@H](NC(=O)[C@H](Cc1c[nH]cn1)NC(=O)[C@@H](NC(=O)[C@H](CO)NC(=O)[C@@H](NC(=O)[C@H](C)NC(=O)[C@H](CO)NC(=O)[C@H](CC(C)C)NC(=O)[C@@H](N)CO)C(C)C)C(C)C)C(=O)O [3102.0349] (H-SLSAVSVHI-OH) | 7.47 |
| CC[C@H](C)[C@H](NC(=O)[C@@H](NC(=O)[C@H](CO)NC(=O)[C@H](CC(C)C)NC(=O)[C@@H](NC(=O)[C@H](CCSC)NC(=O)[C@H](CCSC)NC(=O)[C@@H](NC(=O)[C@H](C)N)[C@@H](C)CC)[C@@H](C)CC)[C@@H](C)O)C(=O)O [3102.0350] (H-AIMMILSTI-OH) | 8.60 |
| CC[C@H](C)[C@H](N)C(=O)N[C@@H](CCSC)C(=O)N[C@@H](CCSC)C(=O)N[C@H](C(=O)N[C@@H](CC(C)C)C(=O)N[C@@H](CO)C(=O)N[C@H](C(=O)N[C@H](C(=O)N[C@H](C(=O)O)[C@@H](C)CC)[C@@H](C)CC)[C@@H](C)O)[C@@H](C)CC [3102.0351] (H-IMMILSTII-OH) | 7.96 |
| CC[C@H](C)[C@H](NC(=O)[C@H](CC(=O)O)NC(=O)[C@H](CC(C)C)NC(=O)[C@@H](NC(=O)[C@@H](N)CC(C)C)[C@@H](C)O)C(=O)N[C@@H](Cc1ccccc1)C(=O)N[C@@H](Cc1ccc(O)cc1)C(=O)N[C@@H](CC(C)C)C(=O)N[C@@H](Cc1ccccc1)C(=O)O [3102.0354] (H-LTLDIFYLF-OH) | 8.36 |
| CC[C@H](C)[C@H](NC(=O)[C@@H](NC(=O)[C@@H](NC(=O)[C@H](CC(=O)O)NC(=O)[C@@H](NC(=O)[C@H](Cc1ccccc1)NC(=O)[C@@H](NC(=O)[C@@H](NC(=O)[C@@H](N)CO)[C@@H](C)CC)C(C)C)C(C)C)C(C)C)[C@@H](C)CC)C(=O)O [3102.0355] (H-SIVFVDVII-OH) | 7.23 |
| CC[C@H](C)[C@H](NC(=O)CNC(=O)[C@@H](NC(=O)[C@@H](NC(=O)[C@H](CC(C)C)NC(=O)CNC(=O)[C@H](CS)NC(=O)[C@@H](NC(=O)[C@@H](N)C(C)C)[C@@H](C)CC)[C@@H](C)CC)C(C)C)C(=O)O [3102.0356] (H-VICGLIVGI-OH) | 7.59 |
| CC[C@H](C)[C@H](NC(=O)[C@H](CO)NC(=O)[C@@H](NC(=O)[C@@H](NC(=O)[C@H](Cc1c[nH]c2ccccc12)NC(=O)[C@H](CCCCN)NC(=O)[C@H](CCSC)NC(=O)[C@H](CCSC)NC(=O)[C@@H](N)CCSC)[C@@H](C)CC)[C@@H](C)CC)C(=O)O [3102.0357] (H-MMMKWIISI-OH) | 9.77 |
| CC[C@H](C)[C@H](NC(=O)[C@H](CC(C)C)NC(=O)[C@H](CC(N)=O)NC(=O)[C@H](C)NC(=O)[C@H](Cc1ccccc1)NC(=O)[C@H](CCCNC(=N)N)NC(=O)[C@H](CO)NC(=O)[C@@H](NC(=O)[C@@H](N)CCCNC(=N)N)[C@@H](C)CC)C(=O)O [3102.0360] (H-RISRFANLI-OH) | 8.21 |
| CC[C@H](C)[C@H](N)C(=O)N[C@H](C(=O)N[C@@H](CCSC)C(=O)N[C@H](C(=O)N[C@@H](CC(N)=O)C(=O)N[C@@H](CO)C(=O)N[C@@H](CC(C)C)C(=O)N[C@H](C(=O)N[C@@H](Cc1ccc(O)cc1)C(=O)O)[C@@H](C)O)C(C)C)[C@@H](C)O [3102.0363] (H-ITMVNSLTY-OH) | 7.02 |
| CC[C@H](C)[C@H](NC(=O)[C@H](CO)NC(=O)[C@@H](N)CCCCN)C(=O)N[C@@H](CC(N)=O)C(=O)N[C@H](C(=O)N[C@@H](CCC(=O)O)C(=O)N[C@@H](Cc1ccc(O)cc1)C(=O)N[C@@H](CCCNC(=N)N)C(=O)N[C@@H](Cc1ccccc1)C(=O)O)C(C)C [3102.0364] (H-KSINVEYRF-OH) | 8.82 |
| CSCC[C@H](NC(=O)[C@@H](N)CCCCN)C(=O)N[C@@H](CC(=O)O)C(=O)N[C@@H](CC(N)=O)C(=O)NCC(=O)N[C@H](C(=O)N[C@@H](CC(C)C)C(=O)N[C@@H](CCC(=O)O)C(=O)N[C@@H](Cc1ccccc1)C(=O)O)[C@@H](C)O [3102.0365] (H-KMDNGTLEF-OH) | 9.04 |
| CC[C@H](C)[C@H](NC(=O)[C@H](CO)NC(=O)[C@@H](NC(=O)[C@H](CCC(=O)O)NC(=O)[C@H](CC(N)=O)NC(=O)[C@H](Cc1ccc(O)cc1)NC(=O)[C@@H](NC(=O)[C@@H](NC(=O)[C@@H](N)CCCNC(=N)N)[C@@H](C)O)[C@@H](C)CC)[C@@H](C)O)C(=O)O [3102.0366] (H-RTIYNETSI-OH) | 9.00 |
| CC[C@H](C)[C@H](NC(=O)[C@@H](NC(=O)[C@H](CC(C)C)NC(=O)[C@H](C)NC(=O)[C@@H](NC(=O)[C@@H](NC(=O)[C@@H](NC(=O)[C@@H](NC(=O)[C@@H](N)Cc1c[nH]cn1)[C@@H](C)CC)[C@@H](C)CC)[C@@H](C)CC)C(C)C)[C@@H](C)O)C(=O)O [3102.0368] (H-HIIIVALTI-OH) | 7.10 |
| CC[C@H](C)[C@H](N)C(=O)N[C@H](C(=O)N[C@@H](Cc1ccc(O)cc1)C(=O)NCC(=O)N[C@@H](CCCNC(=N)N)C(=O)N[C@@H](CO)C(=O)N[C@@H](CC(N)=O)C(=O)N[C@@H](C)C(=O)N[C@H](C(=O)O)[C@@H](C)CC)C(C)C [3102.0369] (H-IVYGRSNAI-OH) | 8.49 |
| CC[C@H](C)[C@H](NC(=O)[C@@H](NC(=O)[C@H](Cc1ccccc1)NC(=O)[C@H](CC(C)C)NC(=O)[C@H](Cc1ccccc1)NC(=O)[C@@H](NC(=O)[C@@H](NC(=O)[C@H](CC(C)C)NC(=O)[C@@H](N)CCCCN)[C@@H](C)CC)[C@@H](C)O)C(C)C)C(=O)O [3102.0370] (H-KLITFLFVI-OH) | 9.39 |
| CC[C@H](C)[C@H](NC(=O)[C@@H](NC(=O)[C@H](Cc1ccc(O)cc1)NC(=O)[C@H](CCC(=O)O)NC(=O)[C@H](CCCCN)NC(=O)[C@H](Cc1ccccc1)NC(=O)[C@H](CC(N)=O)NC(=O)[C@H](CC(C)C)NC(=O)[C@@H](N)C(C)C)[C@@H](C)O)C(=O)O [3102.0371] (H-VLNFKEYTI-OH) | 8.09 |
| CC[C@H](C)[C@H](NC(=O)[C@@H](NC(=O)[C@H](CC(C)C)NC(=O)[C@@H](NC(=O)[C@H](CO)NC(=O)[C@H](CO)NC(=O)[C@@H](NC(=O)[C@H](CO)NC(=O)[C@H](C)N)[C@@H](C)CC)C(C)C)[C@@H](C)O)C(=O)O [3102.0373] (H-ASISSVLTI-OH) | 7.89 |
| CC[C@H](C)[C@H](NC(=O)[C@H](CC(N)=O)NC(=O)[C@H](Cc1ccc(O)cc1)NC(=O)[C@H](CC(=O)O)NC(=O)[C@@H](NC(=O)[C@H](Cc1ccc(O)cc1)NC(=O)[C@H](CC(N)=O)NC(=O)[C@H](CC(C)C)NC(=O)[C@@H](N)CCSC)C(C)C)C(=O)O [3102.0374] (H-MLNYVDYNI-OH) | 8.80 |
| CC[C@H](C)[C@H](N)C(=O)N[C@@H](CC(C)C)C(=O)N1CCC[C@H]1C(=O)N[C@H](C(=O)N[C@H](C(=O)N[C@@H](Cc1ccccc1)C(=O)N[C@@H](CC(C)C)C(=O)N[C@@H](CO)C(=O)N[C@H](C(=O)O)[C@@H](C)CC)[C@@H](C)CC)C(C)C [3102.0375] (H-ILPVIFLSI-OH) | 8.35 |
| CC[C@H](C)[C@H](NC(=O)[C@H](CCC(=O)O)NC(=O)[C@H](Cc1ccccc1)NC(=O)[C@H](CC(N)=O)NC(=O)[C@@H]1CCCN1C(=O)[C@H](CC(N)=O)NC(=O)[C@H](Cc1ccccc1)NC(=O)[C@@H](NC(=O)[C@@H](N)CC(C)C)[C@@H](C)O)C(=O)O [3102.0377] (H-LTFNPNFEI-OH) | 8.28 |
| CC[C@H](C)[C@H](NC(=O)[C@H](Cc1c[nH]cn1)NC(=O)[C@@H](NC(=O)[C@H](CCSC)NC(=O)[C@H](CCSC)NC(=O)[C@H](CCCCN)NC(=O)[C@H](CCSC)NC(=O)[C@@H](NC(=O)[C@@H](N)CCSC)[C@@H](C)O)C(C)C)C(=O)O [3102.0378] (H-MTMKMMVHI-OH) | 8.32 |
| CC[C@H](C)[C@H](NC(=O)[C@H](C)NC(=O)[C@H](Cc1ccc(O)cc1)NC(=O)[C@H](CO)NC(=O)[C@H](Cc1c[nH]cn1)NC(=O)[C@H](Cc1ccccc1)NC(=O)[C@H](CC(C)C)NC(=O)[C@H](CC(C)C)NC(=O)[C@@H](N)CC(C)C)C(=O)O [3102.0379] (H-LLLFHSYAI-OH) | 7.96 |
| CC[C@H](C)[C@H](NC(=O)[C@@H](N)Cc1c[nH]cn1)C(=O)N[C@@H](Cc1ccc(O)cc1)C(=O)N[C@@H](Cc1ccccc1)C(=O)N[C@H](C(=O)N[C@@H](CO)C(=O)N[C@@H](CC(C)C)C(=O)N[C@@H](CC(C)C)C(=O)N[C@@H](CC(C)C)C(=O)O)C(C)C [3102.0380] (H-HIYFVSLLL-OH) | 7.82 |
| CC(C)C[C@H](NC(=O)[C@@H](NC(=O)[C@@H](NC(=O)[C@@H](NC(=O)[C@@H](NC(=O)[C@@H](NC(=O)[C@H](CC(C)C)NC(=O)[C@@H](NC(=O)[C@@H](N)CCCCN)[C@@H](C)O)[C@@H](C)O)[C@@H](C)O)[C@@H](C)O)C(C)C)C(C)C)C(=O)O [3102.0381] (H-KTLTTTVVL-OH) | 8.03 |
| CC[C@H](C)[C@H](N)C(=O)N[C@H](C(=O)N[C@H](C(=O)N[C@@H](Cc1ccc(O)cc1)C(=O)N[C@@H](Cc1ccccc1)C(=O)N[C@@H](CCCNC(=N)N)C(=O)N[C@@H](CCCNC(=N)N)C(=O)N[C@H](C(=O)N[C@H](C(=O)O)[C@@H](C)CC)[C@@H](C)O)C(C)C)[C@@H](C)O [3102.0382] (H-ITVYFRRTI-OH) | 7.59 |
| CC[C@H](C)[C@H](NC(=O)[C@@H](NC(=O)[C@H](CC(C)C)NC(=O)[C@H](CO)NC(=O)[C@H](C)NC(=O)CNC(=O)[C@H](CC(N)=O)NC(=O)[C@H](CO)NC(=O)[C@@H](N)CC(C)C)[C@@H](C)O)C(=O)O [3102.0383] (H-LSNGASLTI-OH) | 7.13 |
| CC[C@H](C)[C@H](NC(=O)[C@@H]1CCCN1C(=O)[C@H](CC(C)C)NC(=O)[C@@H](NC(=O)[C@H](CC(N)=O)NC(=O)[C@H](Cc1ccc(O)cc1)NC(=O)[C@H](CCSC)NC(=O)[C@@H](NC(=O)[C@@H](N)Cc1ccc(O)cc1)[C@@H](C)CC)[C@@H](C)CC)C(=O)O [3102.0384] (H-YIMYNILPI-OH) | 7.41 |
